Measured values: patent US4233309A, “Novel 1-substituted-3-acylpyrrole derivatives, platelet aggregation inhibitors containing them, as active ingredients, and processes for production of said derivatives” (Teijin Limited, priority 1977, dated 1980)
≈ marks a conversion by molar mass, not a printed value. Like-named read-outs stand apart in the source and are kept apart here.

Tests used:
[1] = tested on: platelet aggregation (guinea pig PRP, extra vivo); test: Inhibitory effect of compounds on platelet aggregation in extra vivo (Table 4); parameters: species or system Hartley-strain guinea pigs; details: Cavia porcellus, 100 mg/kg, route PS [sic], 1 h
Description: The effect of the compounds shown in Table 4 on platelet aggregation was assessed using guinea pig in extra vivo.
Each of the test compounds was dissolved in propylene glycol so that its concentration became 100 mg/ml (dosage corresponded to 100 mg/kg) and 30 mg/ml (dosage corresponded to 30 mg/kg). The drug solution was administered either orally or subcutaneously to Hartley-strain guinea pigs (3 per group) having a body weight of 300 to 350 g. As a control, propylene glycol was administered. One hour after the administration, citrated blood was taken out by cardiac puncture, and centrifuged to obtain PRP (see Example 67).
In the case of oral administration, the animals had been fasted overnight.
Into a quvett set in a holder of an aggregometer and prewarmed at 37° C. with stirring, was put 450 μl of the above PRP, and then 50 μl of an aggregating agent was added. The aggregation curve was recorded for an additional 3 minutes, and an increase in light transmittance through PRP after 3 minutes (TB) was recorded (see Example 67). As a control, an increase of transmittance of PRP taken from a guinea pig group administered with propylene glycol alone (TA) was recorded in the same way above. The percent inhibitions were calculated in accordance with the following equation. [formula]
As the aggregating agent, sodium arachidonate (a final concentraton of 0.03 mM) and a collagen suspension (a final concentration of 5 μg/ml) were used.
The percent inhibitions in the above table are averages of three guinea pigs. For details of the above extra vivo test about inhibition of platelet aggregation, the literature references described in Example 67 may be referred to.

[2] = tested on: biosynthesis of prostaglandins (microsomes of the seminal vesicle of bovine); test: Inhibitory effect on prostaglandin biosynthesis in vitro (Table 3); format: biochemical; details: 4 μg/ml sodium arachidonate, bioassay on rat fundus stomach strips
Description: Sprangue-Dawley rats (male, 180-200 g) were fasted overnight, and killed by blow on the head. The stomach was isolated, and fundus stomach strips were prepared. The smooth muscle strips were perfused with Krebs-Hensleit solution (gassed with 95% O2 +5% CO2 gas) of 37° C. at a rate of […]. The Krebs-Hensleit solution contained 0.1 μg/ml of atropine, 0.1 μg/ml of phenoxybenzamine, 3 μg/ml of propranolol, 0.1 μg/ml of tripelennamine, and 0.2 μg/ml of methylsergide to prevent the effect of smooth muscle contracting substances, and 1 μg/ml of indomethacine to inhibit the biosynthesis of prostaglandin by the smooth muscles. Then, 150 μl of a reaction solution containing biologically synthesized prostaglandin was added to the perfusion solution, and the amount of the biologically synthesized prostaglandin was measured from the contraction of the smooth muscles. The contraction of the smooth muscles was recorded on a recorder using an isotonic transducer.
The reaction solution containing biologically synthesized prostaglandin was prepared in the following manner.
To 0.4 mg/ml of microsomes of the seminal vesicle of bovine were added 5 mM of L-tryptophan, 0.025 μM of bovine hemoglobin and 3 mμ of glutathione as cofactors. The mixture was incubated together with each of the test compounds shown in Table 4 at 37° C. for 2 minutes, and immediately then, 4 μg/ml of sodium arachidonate was added. The mixture was further incubated at 37° C. for 10 minutes, and immediately then, the prostaglandin activity of the reaction solution was measured by bioassay.
The microsomes of the seminal vesicle of bovine had been prepared by suspending microsomes of the seminal vesicle of bovine (a product of Miles Laboratories, Inc.) in a 50 mM Tris.HCl buffer (pH 7.4) using a glass homogenizer, and stored in ice water prior to use.
ID50 denotes the concentration of each test compound required to inhibit the biosynthesis of prostaglandins by 50%.

[3] = tested on: platelet aggregation (platelet-rich plasmas (PRP) of guinea pigs); test: Activity of inhibiting platelet aggregation in vitro, guinea pig PRP, sodium arachidonate as aggregating agent (Table 1); format: cell-based, Hartley-strain male guinea pigs; details: Cavia porcellus, sodium arachidonate 0.03 mM final, 37° C., final concentration, read-out: IC50 (minimum concentration of drug which showed a percent inhibition of more than 50%)
Description: (§1) Some 1-substituted-3-acylpyrrole derivatives and other drugs were tested for platelet aggregation inhibiting activities in vitro using platelet-rich plasmas (PRP) of man and guinea pigs. The results are shown as minimum concentration of drugs which inhibit more than 50% of platelet aggregation induced by several aggregating agents.
(§2) In experiments with PRP of guinea pigs, sodium arachidonate (final concentration 0.03 mM) was used as an aggregating agent. In experiments with human PRP, sodium arachidonate (final concentration 0.1 mM), collagan suspension (final concentration 10 μg/ml), epinephrine solution (final concentration 20 μg/ml; for secondary aggregation), an epinephrine solution (final concentration 2 μg/ml; for primary aggregation) and ADP (final concentration 5 μM) were used as aggregating agents.
In an experiment with guinea pig PRP, citrated blood (containing 0.38% sodium citrate as a final concentration) was withdrawn by cardiac puncture from Hartley-strain male guinea pigs having a body weight of 350 to 600 g. The citrated blood was centrifuged at 1,000 rpm for 10 minutes at room temperature, and the supernatant platelet suspension (PRP) was separated.
The PRP was stored at room temperature, and used as soon as possible. Those which had been stored for more than 4 hours after preparation were not used.
(§3) For each test, a drug is dissolved in dimethylsulfoxide to a concentration of 10 mg/ml, and diluted with physiological saline to form 1 ml each of solutions having a concentration of 2500 μg/ml, 1000 μg/ml, 750 μg/ml, 500 μg/ml, 250 μg/ml and 100 μg/ml. A compound having a free carboxylic acid as a residue such as indomethacine and Ibprofen was dissolved in 0.1 M NaHCO3 to form a sodium salt solution having a concentration of 10 mg/ml. Then, the solution was diluted with physiological saline in the same way as above to form a test drug solution.
(§4) Arachidonic acid (99% pure, a product of Sigma Co., Ltd.) was dissolved in 0.1 M NaHCO3, and a 3.3 mM solution of sodium arachidonate was prepared. The solution was diluted with physiological saline to a concentration of 1 mM and used in the experiments. The 3.3 mM solution was stored in a refrigerator as a stock solution, and the 1 mM solution was newly prepared from the stock solution every time it was used.
(§5) Physiological saline (50 μl) and 50 μl of the aggregating agent solution were added to 400 μl of PRP which had been pre-warmed and stirred at 37° C. in a quvett set in a holder of an aggregometer. Platelet aggregation was thus initiated, and the change of light transmittance through a stirred platelet suspension was recorded for 3 minutes by a recorder joined to the aggregometer. An increase in transmittance after 3 minutes (T0) was used as a parameter of the rate of platelet aggregation in control experiments.
To 400 μl of PRP in a quvett was added 50 μl of a test drug solution. The mixture was pre-incubated and stirred for 2 minutes at 37° C. Then 50 μl of the aggregating agent was added to drug containing PRP and again aggregation responses were recorded as increases in light transmittance after 3 minutes (T1) in the same way as in (1) above. Percent inhibition was calculated from the formula [formula]
For the above in vitro test for the inhibition of platelet aggregation, reference may be had to H. M. Davis, J. Phyllis, K. Paul and W. Terry: Thromb. Res. 11, 217-226 (1977) and R. E. Anderson and J. G. Foulks: Thromb. Haemos. 36, 343-359 (1976).

[4] = tested on: carrageenan edema; test: Antiinflammatory activity (carrageenan edema of rat paw, Table 5); format: in vivo, Sprangue-Dawley (SD) male rats; details: 25 mg/kg, 3 h after 1% carrageenan
Description: Sprangue-Dawley (SD) male rats with a body weight of 160 to 180 g, four in each group, were used. The volume of the left leg was measured, and each of the test compounds shown in Table 5 (100 mg/kg dissolved in polyethylene glycol so as to provide a volume of 2 ml/kg) was orally administered. One hour later, 0.1 ml of 1% carrageenan (dissolved in physiological saline) as an inflammation-inducing substance was subcutaneously injected to the paw of the left hind leg. A control group was orally administered with 2 ml/kg of polyethylene glycol. As a positive control, 25 mg/kg of Ibprofen was similarly administered. Three hours after the injection of 1% carrageenan, the volume of the left leg was measured, and the ratio of edema was calculated from the volume before the administration of the carrageenan. The percent inhibition of edema in comparison with the control group was determined.

[5] = tested on: platelet aggregation (human PRP); test: Activity of inhibiting platelet aggregation in vitro, human PRP, several aggregating agents (Table 2); format: cell-based, human (healthy volunteers)
Description: as §1, §2
In the experiment using human PRP, heapinized blood (containing 20 IU/ml of heparin) was taken from the cubital vein of healthy volunteers, and centrifuged at 1,000 rpm at room temperature for 10 minutes. The supernatant platelet suspension (PRP) was separated.
as §3, §4
The collagen suspension (made by Hormon-Chemie, West Germany) was diluted with physiological saline to a concentraton of 100 μg/ml.
Epinephrine hydrogen tartarate was dissolved in physiological saline to form solutions having a concentration of 200 μg/ml (corresponding to a final concentration of 2 μg/ml).
Disodium salt of ADP was dissolved in a 0.1 M tris-hydrochloric acid buffer to form a 50 μM solution (corresponding to a final concentraton of 5 μM).
as §5
To 400 μl of PRP in a quvett was added 50 μl of a test drug solution. The mixture was pre-incubated and stirred for 2 minutes at 37° C. Then 50 μl of the aggregating agent was added to drug containing PRP and again aggregation responses were recorded as increases in light transmittance after 3 minutes (T1) in the same way as in (1) above. Percent inhibition was calculated from the formula [formula] […]

[6] = collagen 5 μg/ml, read-out: Percent inhibition of platelet aggregation, collagen
[7] = sodium arachidonate 0.03 mM, read-out: Percent inhibition of platelet aggregation, sodium arachidonate

| SMILES | ID50 (concentration required to inhibit the biosynthesis of prostaglandins by 50%) [2] [µg/mL] | IC50 [3] [µg/mL] | also measured |
| --- | --- | --- | --- |
| CC(=O)Oc1ccccc1C(=O)O [Acetylsalicylic acid, reference compound] |  |  | inhibition at 100 mg/kg [1, 6]: 41%; inhibition at 100 mg/kg [1, 7]: 77% |
| Cc1cc(C(=O)c2ccccc2)c(C)n1CCO [Compound 100, 2-(3-benzoyl-2,5-dimethylpyrrol-1-yl)-ethanol] | 145.3 | 5 (≈ 20.6 µM) |  |
| Cc1cc(C(=O)c2ccccc2)c(C)n1[C@@H](C)CO [Compound 108, (2S)-2-(3-benzoyl-2.5-dimethylpyrrol-1-yl)-2-methylethanol] |  | 5 (≈ 19.4 µM) | inhibition at 100 mg/kg [1, 6]: 14%; inhibition at 100 mg/kg [1, 7]: 62% |
| Cc1cc(C(=O)c2ccccc2)c(C)n1[C@H](C)CO [Compound 110, (2R)-2-(3-benzoyl-2,5-dimethylpyrrol-1-yl)-2-methylethanol] |  | 1 (≈ 3.89 µM) | inhibition at 100 mg/kg [1, 6]: 90%; inhibition at 100 mg/kg [1, 7]: 96% |
| COC(c1ccccc1)C(C)n1c(C)cc(C(=O)c2ccccc2)c1C (centres unmarked) [Compound 218, 2-(3-benzoyl-2,5-dimethylpyrrol-1-yl)-2-methyl-1-phenylethyl methyl ether] |  | 5 (≈ 14.4 µM) |  |
| COCCn1c(C)cc(C(=O)c2ccccc2C)c1C [Compound 238, 2-(3-o-methylbenzoyl-2,5-dimethylpyrrol-1-yl) ethyl methyl ether] |  | 10 (≈ 36.9 µM) |  |
| COCCn1c(C)cc(C(=O)c2cccs2)c1C [Compound 252, 2-[3-(2-thenoyl)-2,5-dimethylpyrrol-1-yl]-ethyl methyl ether] |  | 2.5 (≈ 9.49 µM) |  |
| CCCCC(=O)OCC(C)n1c(C)cc(C(=O)c2ccccc2)c1C (centres unmarked) [Compound 310, 2-(3-benzoyl-2,5-dimethylpyrrol-1-yl)-2-methylethyl valerate] | 11.5 | 2.5 (≈ 7.32 µM) |  |
| Cc1cc(C(=O)c2ccccc2)c(C)n1C(C)COC(=O)c1ccccc1 (centres unmarked) [Compound 314, 2-(3-benzoyl-2,5-dimethylpyrrol-1-yl)-2-methylethyl benzoate] | 56.0 | 1 (≈ 2.77 µM) |  |
| CC(=O)OC(c1ccccc1)C(C)n1c(C)cc(C(=O)c2ccccc2)c1C (centres unmarked) [Compound 328, 2-(3-benzoyl-2,5-dimethylpyrrol-1-yl)-2-methyl-1-phenylethyl acetate] |  | 2.5 |  |
| Cc1cc(C(=O)c2ccccc2)c(C)n1CCSc1ccccc1 [Compound 404, 2-(3-benzoyl-2,5-dimethylpyrrol-1-yl)ethyl phenyl sulfide] |  | 2.5 (≈ 7.45 µM) |  |
| CCOC(=O)C(C)n1c(C)cc(C(=O)c2ccccc2)c1C (centres unmarked) [Compound 706, ethyl 2-(3-benzoyl-2,5-dimethylpyrrol-1-yl) propionate] | 20.0 | 1 (≈ 3.34 µM) |  |
| Cc1cc(C(=O)c2ccccc2)c(C)n1C(C)C(N)=O (centres unmarked) [Compound 802, 2-(3-benzoyl-2,5-dimethylpyrrol-1-yl)propionamide] |  | 5 (≈ 18.5 µM) | inhibition at 100 mg/kg [1, 6]: 40%; inhibition at 100 mg/kg [1, 7]: 100% |
| CC(C)Cc1ccc(C(C)C(=O)O)cc1 (centres unmarked) [Ibprofen, reference compound] |  |  | Percent inhibition of edema (positive control) [4]: 51% |
| COc1ccc2c(c1)c(CC(=O)O)c(C)n2C(=O)c1ccc(Cl)cc1 [Indomethacine] | 0.6 | 5 (≈ 14 µM) | IC50 ([5]; ADP 5 μM, read-out: IC50, aggregation by ADP): 10 µg/mL (≈ 27.9 µM); IC50 ([5]; arachidonate 0.1 mM, read-out: IC50, aggregation by arachidonate): 1 µg/mL (≈ 2.79 µM); IC50 ([5]; collagen 10 μg/ml, read-out: IC50, aggregation by collagen): 10 µg/mL (≈ 27.9 µM); IC50 ([5]; epinephrine 2 μg/ml, primary aggregation, read-out: IC50, aggregation by epinephrine, primary): 10 µg/mL (≈ 27.9 µM); IC50 ([5]; epinephrine 20 μg/ml, secondary aggregation, read-out: IC50, aggregation by epinephrine, secondary): 1 µg/mL (≈ 2.79 µM) |
